The source of these data is patent publication US7585880B2, “Phenylpropanoic acid derivatives” (Takeda Pharmaceutical Company Limited, priority 2003, dated 2009).

Structures are written as SMILES.

What is called EC50 is the concentration that produces a half-maximal response. What is called melting point is the temperature of the solid-liquid transition.

The target in the first data set is T1, human GPR40 (Homo sapiens, UniProt O14842).
T1 construct: expressed in transfected cells
T1 sequence (O14842 whole entry): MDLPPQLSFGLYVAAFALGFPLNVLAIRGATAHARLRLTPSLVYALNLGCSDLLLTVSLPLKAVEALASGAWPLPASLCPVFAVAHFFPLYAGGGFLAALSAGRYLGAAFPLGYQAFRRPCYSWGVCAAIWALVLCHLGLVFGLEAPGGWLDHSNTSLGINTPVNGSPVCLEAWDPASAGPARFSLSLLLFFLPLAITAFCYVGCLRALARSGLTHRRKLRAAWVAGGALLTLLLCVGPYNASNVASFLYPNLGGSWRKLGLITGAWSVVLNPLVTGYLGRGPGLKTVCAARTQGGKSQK
Kind of data set: Determination of EC50 against human GPR40: intracellular calcium change by FLIPR in CHO cells. Format: cell-based. As to conditions: CHO cell line that stably expressed human GPR40; changes in intracellular calcium concentration measured by FLIPR (Fluo3-AM). As for the experimental part: Determination of EC50 of the Compound of the Present Invention Against Human GPR40
For determination of EC50, CHO cell line that stably expressed human GPR40 was used. Unless otherwise indicated, the CHO cell line was cultured using α-MEM medium (Invitrogen) containing 10% fetal calf serum (Invitrogen).
The cells cultured to nearly confluent were rinsed with PBS (Invitrogen) on the previous day of the assay, peeled off with 0.05% Trypsin-EDTA solution (Invitrogen) and recovered by centrifugation. The number of the obtained cells was counted, and the cells were diluted such that 3×10^5 cells were contained per 1 mL of the medium, dispensed to a black welled 96-well plate (coster) by 100 μL per well and cultured overnight in a CO2 incubator. Various test compounds were added to the CHO cells thus prepared, and the changes in the intracellular calcium concentration was measured using FLIPR (Molecular Device). The below-mentioned pre-treatment was applied to measure changes in the intracellular calcium concentration by FLIPR.
An assay buffer for adding a fluorescent dye Fluo3-AM (DOJIN) to the cells, or for washing the cells immediately before FLIPR assay was prepared. To a solution of 1M HEPES (pH 7.4, DOJIN, 20 mL) added to HBSS (Invitrogen, 1000 mL) (hereinafter HBSS/HEPES solution) was added a solution (10 mL) obtained by dissolving probenecid (Sigma, 710 mg) in 1N NaOH (5 mL), and adding and mixing an HBSS/HEPES solution (5 mL), and the resulting solution was used as an assay buffer. Fluo3-AM (50 μg) was dissolved in dimethylsulfoxide (Wako, 21 μL), and an equivalent amount of 20% pluronic acid (Molecular Probes) was added and mixed. The solution was added to the assay buffer (10.6 mL) supplemented with fetal calf serum (105 μL) to give a fluorescent dye solution. On the previous day of assay, the medium of the CHO cells newly inoculated to the black welled 96-well plate was removed, the fluorescent dye solution was immediately dispensed by 100 μL per well and the cells were cultured in a CO2 incubator for 1 hr to allow intake of the fluorescent dye by the cells. The cells after the culture were washed with the above-mentioned assay buffer and set on FLIPR. The test compound was diluted with dimethylsulfoxide in advance, dispensed to polypropylene 96-well plate (sample plate) by 2 μL, and cryopreserved at −20° C. To the thawed sample plate was added an assay buffer containing 0.015% CHAPS (DOJIN) by 198 μL, and simultaneously set on FLIPR together with the cell plate. After the aforementioned pre-treatment, changes in the intracellular calcium concentration upon addition of various test compounds was measured by FLIPR. Based on the results, a dose-response curve of each test compound was formed and EC50 was calculated.
(In general: A change in cytosolic calcium serves as a functional read-out for many receptors and channels.)
Consider `O=C(O)CCc1c(F)cc(OCc2ccc(CN(CCc3ccccc3)c3nc(-c4ccccc4)cs3)cc2)cc1F` [Example 42, 3-[2,6-difluoro-4-[[4-[[(2-phenylethyl)(4-phenyl-1,3-thiazol-2-yl)amino]methyl]benzyl]oxy]phenyl]propanoic acid], for which the EC50 stood at 65 nM.
As to `CC(C)c1csc(N(CCc2ccccc2)Cc2ccc(COc3ccc(CCC(=O)O)cc3)cc2)n1` [Example 2, 3-{4-[(4-{[(4-isopropyl-1,3-thiazol-2-yl)(2-phenylethyl)amino]methyl}benzyl)oxy]phenyl}propanoic acid], the concentration for a half-maximal effect (EC50) turned out to be 48 nM.
On the same count and under the same terms, as for `O=C(O)CCc1ccc(OCc2ccc(CN(CCc3ccccn3)c3nc(-c4ccccc4)cs3)cc2)cc1` [Example 12, 3-{4-[(4-([(4-phenyl-1,3-thiazol-2-yl)(2-pyridin-2-ylethyl)amino]methyl}benzyl)oxy]phenyl)propanoic acid], the figure is 19 nM; as for `CCCN(Cc1ccc(COc2ccc(CCC(=O)O)cc2)cc1)c1nc(-c2ccccc2)c(C)o1` [Example 40, 3-[4-[[4-[[(5-methyl-4-phenyl-1,3-oxazol-2-yl)(propyl)amino]methyl]benzyl]oxy]phenyl]propanoic acid], 55 nM; as for `CC(C)c1csc(N(CCc2ccc(F)cc2)Cc2ccc(COc3ccc(CCC(=O)O)c(F)c3)cc2)n1` [Example 9, 3-{2-fluoro-4-[(4-{[[2-(4-fluorophenyl)ethyl](4-isopropyl-1,3-thiazol-2-yl)amino]methyl}benzyl)oxy]-phenyl}propanoic acid], 38 nM.

System in a further data set: not given
Assay: not given
Conditions: not given
Compound `O=C(O)CCc1ccc(OCc2ccc(CN(CCc3ccccc3)c3nc(-c4ccccc4)cs3)cc2)cc1` [Example 32, 3-[4-[[4-[[(2-phenylethyl)(4-phenyl-1,3-thiazol-2-yl)amino]methyl]benzyl]oxy]phenyl]propanoic acid] yielded a melting point of 114 to 115 °C.
